Legend:
[1] = system: male Sprague Dawley rat (SD rat); test: Evaluation of the effect of preventing nerve damage: transient focal MCAO/R model, infarct volume by TTC staining; type: in vivo; details: 50 mg/kg intraperitoneal injection once 10 minutes before, 1 hour ischemia, 24 hours blood reperfusion, sum of seven brain slices, 5 SD rats
Protocol: The specific solvent was made of dimethyl sulfoxide (DMSO), cremophor EL (CrEL) and water, with the relative volume ratio of 10:20:70, respectively. Besides the foresaid experimental groups, only pure solvent used was treated as vehicle group, and a sham group, which was not administrated with any compound or solvent or with nylon monofilament to cause obstruction and ischemia, was also included.
In this test example, transient focal Middle Cerebral Artery Occlusion/ Reperfusion model (MCAO/R model) was adopted to simulate ischemic stroke for evaluating the subsequent nerve damage. Specifically, male Sprague Dawley rat (SD rat) was adopted and anaesthetized with 2% isoflurane, and then the right common carotid artery, external carotid artery and internal carotid artery were distinguished among them from the neck.
Next, a nylon monofilament with length of 22 millimeters (mm), size number of 4/0 and capped with polysiloxane was inserted into the external carotid artery and along with the […] of Willis to induce obstruction and ischemia in the middle cerebral artery. After causing obstruction and ischemia for 1 hour, the nylon monofilament was removed to allow the blood recirculated to the brain, in other words, to undergo blood reperfusion.
After blood reperfusion for 24 hours, the rat was sacrificed and the brain thereof was placed into a cooled 0.95% saline. Then, 1 mm part of the brain tip was excised, and the rest of the brain was cut in coronal section to obtain seven slices of brain tissue with each thickness of 2 mm. Next, those sliced brain tissues were infiltrated with 1% 2,3,5-triphenyltetrazolium chloride (TTC) for 30-minute at room temperature (about 25°C to 27°C). Afterward, the sliced brain tissues were […] with a 4% […] solution, and then MacroPATH Digital Imaging System was used to record the images and the obtained images were analyzed by ImageJ 1.52a to count the infarct volume percent, which could represent the degree of nerve damage. The foresaid infarct volume percent was obtained by adding the values acquired by multiplying the proportion of infarct area of each sliced brain tissue with their thickness, and the proportion of infarct area was calculated by the equation: (B-A)/B×100%; wherein, "A" represented the undamaged area in the damaged cerebral hemisphere on the right side, and "B" represented the total area of the undamaged cerebral hemisphere on the left side.
Here, 10 minutes before processing the foresaid MCAO/R model, the rats were administrated with the test samples of Examples 1 to 15 by intraperitoneal injection for one time. The administration amount was 50 milligrams per kilogram (mg/kg) or 5 ml/kg. The actual applied amount was depended on the weight of the rates. The treatment for the vehicle group was the same as that of the experimental group except only solvent was used.
The results of TTC staining of the seven sliced brain tissues of the groups of Examples 1 to 15, the vehicle group and the sham group were shown in FIG. 2. 5 SD rats were used for each experimental groups of Examples 1 to 15 and the vehicle group, while only 3 SD rats were used for the sham group. Table 2: The total infarct volume percent of Examples 1 to 15, the vehicle group, and the sham group.

[2] = system: male Sprague Dawley rat (SD rat); test: Neurobehavioral evaluation (Bederson classification) after MCAO/R; details: Bederson grade 0 to 4, 50 mg/kg intraperitoneal before MCAO/R

SMILES | Total infarct volume percent (%) [1] [%] | Grade, Time point of 0.5-hour after blood reperfusion [2] | Grade, Time point of 1.5-hour after blood reperfusion [2] | Grade, Time point of 24-hour after blood reperfusion [2] | Grade, Time point of 24-hour after blood reperfusion ([2]; 50 mg/kg)
CCCCc1c(C)c(OC)c2c(c1OC)OCO2 [Example 2] | 30.75 | – | – | – | –
COc1cc(CNC(C)=O)c(OC)c2c1OCO2 [Example 5] | 20.2 | 2.40 | 2.40 | 2.40 | –
COc1ccc(C[C@@H](C)NC(=O)c2cc(OC)c3c(c2OC)OCO3)cc1S(N)(=O)=O [Example 6] | 19.67 | 2.60 | 2.40 | 2.20 | –
COc1cc(C(=O)NCCCC(=O)O)c(OC)c2c1OCO2 [Example 7] | 15.17 | 2.60 | 2.40 | – | 1.60
COc1cc(C(=O)NCCc2ccc(O)c(O)c2)c(OC)c2c1OCO2 [Example 8] | 22.39 | 2.40 | 2.60 | 2.00 | –
COc1cc(C(=O)Nc2ccc(O)cc2)c(OC)c2c1OCO2 [Example 9] | 14.52 | 2.80 | 2.40 | – | 1.40
COc1cc(C(=O)NCCC(=O)O)c(OC)c2c1OCO2 [Example 10] | 21.76 | 2.60 | 2.40 | 2.20 | –
COc1cc(C(=O)N[C@@H](C)C(=O)O)c(OC)c2c1OCO2 [Example 11] | 15.93 | 2.80 | 2.00 | – | 1.60
COc1cc(C(=O)OCc2ccccc2)c(OC)c2c1OCO2 [Example 12] | 35.67 | – | – | – | –
COc1cc(C(=O)Nc2c(C)n(C)n(-c3ccccc3)c2=O)c(OC)c2c1OCO2 [Example 13] | 32.53 | – | – | – | –
COc1cc(C(=O)Nc2sc(C)cc2C#N)c(OC)c2c1OCO2 [Example 14] | 34.77 | – | – | – | –
CCOC(=O)c1ccc(NC(=O)c2cc(OC)c3c(c2OC)OCO3)cc1 [Example 15] | 17.76 | 2.80 | 2.60 | 2.00 | –
